Broadly, the IC50 is the concentration at which inhibition is half-maximal. Broadly, the inhibition is the relative decrease from the control value, in per cent.

SMILES strings stand for the structures. Non-standard residues stand in square brackets, D forms with d. Residues, ends and D or L forms follow the SMILES beside them. *: point of attachment. Arg(NO2) = N=C(NCCC[C@H](N)C(=O)O)N[N+](=O)[O-]; Sta = CC(C)C[C@H](N)[C@@H](O)CC(=O)O; Boc = CC(C)(C)OC(=O)*; NHBn = c1ccc(CN*)cc1

The first assay addresses T1, renin (Homo sapiens, UniProt P00797).
T1 sequence (P00797 67-406): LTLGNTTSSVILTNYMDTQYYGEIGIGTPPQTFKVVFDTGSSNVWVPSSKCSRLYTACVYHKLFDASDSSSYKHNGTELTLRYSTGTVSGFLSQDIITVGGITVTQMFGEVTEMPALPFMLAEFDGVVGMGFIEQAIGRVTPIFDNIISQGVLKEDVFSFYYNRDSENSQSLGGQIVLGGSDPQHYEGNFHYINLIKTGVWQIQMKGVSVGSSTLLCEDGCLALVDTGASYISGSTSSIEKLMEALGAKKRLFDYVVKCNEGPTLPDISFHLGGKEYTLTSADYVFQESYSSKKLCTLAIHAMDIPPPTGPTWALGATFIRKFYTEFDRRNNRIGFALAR
As to the kind of experiment: in vitro renin inhibitory activity, radioimmunoassay for angiotensin I.
Details: not given
Type of assay: biochemical. Here is the method:
The effectiveness of the aforementioned compounds is determined by a test for in vitro renin inhibitory activity. This activity is determined by a standard radioimmunoassay for angiotensin I. In this assay the enzyme, renin, incubated for two hours at 37° in the presence of a substrate, angiotensinogen, generates the product, angiotensin I. Test compounds are added to the incubation mixture.
Turning to `CNC(=S)NCCCC[C@H](NC(=O)C(Cc1cccc2ccccc12)Cc1cccc2ccccc12)C(=O)N[C@@H](CC(C)C)[C@@H](O)CC(=O)N[C@@H](CC(C)C)C(=O)NCc1ccccc1`, the midpoint of inhibition, the IC50, lay at 60 nM.

`CC[C@H](C)CNC(=O)C[C@H](O)[C@H](CC(C)C)NC(=O)[C@H](CCCCNS(=O)(=O)c1ccc(C)cc1)NC(=O)C(Cc1cccc2ccccc12)Cc1cccc2ccccc12` [Example 41, DNMA-LYS(TOS)-STA-NHCH2 CH(CH3)CH2 CH3] registered a half-inhibitory concentration (IC50) of 3000 nM.

On to `CCC(C)CNC(=O)C[C@H](O)[C@H](CC(C)C)NC(=O)C(C/C=C/CNC(=S)NC)NC(=O)C(Cc1cccc2ccccc12)Cc1cccc2ccccc12` (stereo partly drawn), for which the 50% inhibitory concentration (IC50) was determined as 41 nM.

Molecule `CC(C)C[C@H](NC(=O)C[C@H](O)[C@H](CC(C)C)NC(=O)C(CCCCCNC(=N)N[N+](=O)[O-])NC(=O)C(Cc1cccc2ccccc12)Cc1cccc2ccccc12)C(=O)NCc1ccccc1` (stereo partly drawn) gave a half-maximal inhibitory concentration (IC50) of 110 nM.

The molecule `CCC(C)CNC(=O)C[C@H](O)[C@H](CC(C)C)NC(=O)[C@H](CCCCNP(=O)(Oc1ccccc1)Oc1ccccc1)NC(=O)C(Cc1cccc2ccccc12)Cc1cccc2ccccc12` (stereo partly drawn) yielded a half-inhibitory concentration (IC50) of 7400 nM.

Molecule `CC[C@H](C)CNC(=O)C[C@H](O)[C@H](CC(C)C)NC(=O)C(NC(=O)C(Cc1cccc2ccccc12)Cc1cccc2ccccc12)C(=O)OC` (stereo partly drawn) returned a half-inhibitory concentration (IC50) of 23 nM.

`CC[C@H](C)CNC(=O)C[C@H](O)[C@H](CC(C)C)NC(=O)C(NC(=O)[C@H](Cc1ccccc1)NC(=O)OC(C)(C)C)C(=O)N1CCCC1` (stereo partly drawn): the IC50 came out at 400 nM.

In turn, `CCC(C)CNC(=O)C[C@H](O)[C@H](CC(C)C)NC(=O)C(NC(=O)C(CC(=O)N1CCOCC1)Cc1cccc2ccccc12)C(=O)OC` (stereo partly drawn) gave a half-inhibitory concentration (IC50) of 98 nM.

In turn, `CC[C@H](C)CNC(=O)C[C@H](O)[C@H](CC(C)C)NC(=O)C(CCCCCCNC(=S)NC)NC(=O)C(Cc1cccc2ccccc12)Cc1cccc2ccccc12` (stereo partly drawn) registered a half-maximal inhibitory concentration (IC50) of 45 nM.

In the case of `CC[C@H](C)CNC(=O)C[C@H](O)[C@H](CC(C)C)NC(=O)[C@H](CCCCn1cccc1)NC(=O)C(Cc1cccc2ccccc12)Cc1cccc2ccccc12`, the IC50 was found to be 87 nM.

Turning to `CC(C)C[C@H](NC(=O)C[C@H](O)[C@H](CC(C)C)NC(=O)[C@H](CCCCNC(=N)N[N+](=O)[O-])NC(=O)C(Cc1cccc2ccccc12)Cc1cccc2ccccc12)C(=O)NCc1ccccc1`, inhibition was half-maximal at 15 nM (IC50).

As for `CCC(C)CNC(=O)C[C@H](O)[C@H](CC(C)C)NC(=O)C(CC#CCNC(C)=O)NC(=O)C(Cc1cccc2ccccc12)Cc1cccc2ccccc12` (single isomer, unassigned), half-maximal inhibition (IC50) was put at 29 nM.

`CC[C@H](C)CNC(=O)C[C@H](O)[C@H](CC(C)C)NC(=O)C(CC#CCNC(=O)OCc1ccccc1)NC(=O)C(Cc1cccc2ccccc12)Cc1cccc2ccccc12` (stereo partly drawn) returned an IC50 of 150 nM.

Still in this assay, the particulars now being: at 10^-6 molar concentration; read-out: percent inhibition of renin activity.
On to `CC[C@H](C)CNC(=O)C[C@H](O)[C@H](CC(C)C)NC(=O)C(NC(=O)C(Cc1cccc2ccccc12)Cc1cccc2ccccc12)C(=O)NC` (stereo partly drawn), for which the inhibition at 1 µM was determined as 26%.

Turning to `CC[C@H](C)CNC(=O)C[C@H](O)[C@H](CC(C)C)NC(=O)C(CCCCCCNC(=O)OCc1ccccc1)NC(=O)C(Cc1cccc2ccccc12)Cc1cccc2ccccc12` (stereo partly drawn), the inhibition at 1 µM was 28%.

With `CC[C@H](C)CNC(=O)C[C@H](O)[C@H](CC(C)C)NC(=O)C(NC(=O)C(Cc1cccc2ccccc12)Cc1cccc2ccccc12)C(N)=O` (stereo partly drawn), the inhibition at 1 µM was determined as 24%.

Staying with this assay, now noted: read-out: IC50.
As for `CCC(C)CNC(=O)C[C@H](O)[C@H](CC(C)C)NC(=O)C(CCCCCNC(=S)NC)NC(=O)C(Cc1cccc2ccccc12)Cc1cccc2ccccc12` (stereo partly drawn), the half-inhibitory concentration (IC50) is 40 nM.

Consider `CNC(=S)NCC#CCC(NC(=O)C(Cc1cccc2ccccc12)Cc1cccc2ccccc12)C(=O)N[C@@H](CC1CCCCC1)[C@@H](O)CC(=O)NCCN1CCOCC1` (stereo partly drawn), for which the IC50 turned out to be 48 nM.

For `CNC(=O)NCCCC[C@H](NC(=O)C(Cc1cccc2ccccc12)Cc1cccc2ccccc12)C(=O)N[C@@H](CC(C)C)[C@@H](O)CC(=O)N[C@@H](CC(C)C)C(=O)NCc1ccccc1`, the IC50 was found to be 84 nM.

Consider `CC[C@H](C)CNC(=O)C[C@H](O)[C@H](CC(C)C)NC(=O)[C@H](CCCCNC(=S)NC)NC(=O)C(Cc1cccc2ccccc12)Cc1cccc2ccccc12`, for which the half-maximal inhibitory concentration (IC50) was 9.6 nM.

As for `CC[C@H](C)CNC(=O)C[C@H](O)[C@H](CC(C)C)NC(=O)[C@H](CCCCNC(N)=O)NC(=O)C(Cc1cccc2ccccc12)Cc1cccc2ccccc12`, the IC50 came to 50 nM.

As for `CC[C@H](C)CNC(=O)C[C@H](O)[C@H](CC(C)C)NC(=O)[C@H](CCCCNC(=O)OC)NC(=O)C(Cc1cccc2ccccc12)Cc1cccc2ccccc12` [Example 42, DNMA-LYS(CO2 CH3)-STA-NHCH2 CH(CH3)CH2 CH3], the 50% inhibitory concentration (IC50) is 60 nM.

Turning to `CCC(C)CNC(=O)C[C@H](O)[C@H](CC(C)C)NC(=O)[C@H](CCCCn1cccc1)NC(=O)C(Cc1cccc2ccccc12)Cc1cccc2ccccc12` (stereo partly drawn), the IC50 amounted to 540 nM.

Regarding `CC[C@H](C)CNC(=O)C[C@H](O)[C@H](CC(C)C)NC(=O)C(NC(=O)C(Cc1cccc2ccccc12)Cc1cccc2ccccc12)C(=O)N(C)C` (stereo partly drawn), the IC50 was determined as 200 nM.

Turning to `N=C(NCC#CCC(NC(=O)C(Cc1cccc2ccccc12)Cc1cccc2ccccc12)C(=O)N[C@@H](CC1CCCCC1)[C@@H](O)CC(=O)NCCN1CCOCC1)N[N+](=O)[O-]` (stereo partly drawn), the IC50 amounted to 12 nM.

Take `CC(C)C[C@H](NC(=O)C[C@H](O)[C@H](CC(C)C)NC(=O)[C@H](CCCNC(=N)N[N+](=O)[O-])NC(=O)[C@H](Cc1ccccc1)NC(=O)OC(C)(C)C)C(=O)NCc1ccccc1` [Example 1, BOC-PHE-ARG(NO2)-STA-LEU-NHCH2 Ph] (Boc-F[Arg(NO2)][Sta]L-NHBn): the half-maximal inhibitory concentration (IC50) was 63 nM.

Take `CC[C@H](C)CNC(=O)C[C@H](O)[C@H](CC(C)C)NC(=O)C(NC(=O)C(Cc1cccc2ccccc12)Cc1cccc2ccccc12)C(=O)NCCc1cnc[nH]1` (stereo partly drawn): the half-inhibitory concentration (IC50) was 3100 nM.

On to `CC[C@H](C)CNC(=O)C[C@H](O)[C@H](CC(C)C)NC(=O)C(CCCCCCNC(N)=NC#N)NC(=O)C(Cc1cccc2ccccc12)Cc1cccc2ccccc12` (stereo partly drawn), for which the IC50 was 45 nM.

For `CC(C)C[C@H](NC(=O)C[C@H](O)[C@H](CC(C)C)NC(=O)[C@H](CCCN1C(=O)c2ccccc2C1=O)NC(=O)[C@H](Cc1ccccc1)NC(=O)OC(C)(C)C)C(=O)NCc1ccccc1` [Example 4, BOC-PHE-ORN(PHT)-STA-LEU-NHCH2 Ph], the half-inhibitory concentration (IC50) stood at 910 nM.

In the case of `CC[C@H](C)CNC(=O)C[C@H](O)[C@H](CC(C)C)NC(=O)[C@H](CCCCNC(=O)CSC)NC(=O)C(Cc1cccc2ccccc12)Cc1cccc2ccccc12`, the half-inhibitory concentration (IC50) was determined as 98 nM.

As to `CSC(=NC#N)NCCCC[C@H](NC(=O)C(CC(=O)N1CCOCC1)Cc1cccc2ccccc12)C(=O)N[C@@H](CC(C)C)[C@@H](O)CC(=O)NCCN1CCOCC1` (stereo partly drawn), the 50% inhibitory concentration (IC50) is 350 nM.

Take `CC[C@H](C)CNC(=O)C[C@H](O)[C@H](CC(C)C)NC(=O)[C@H](CCCCNC(=S)NC)NC(=O)C(Cc1ccccc1)Cc1cccc2ccccc12` (stereo partly drawn): the IC50 was 140 nM.

With `CNC(=S)NCCCC[C@H](NC(=O)C(Cc1cccc2ccccc12)Cc1cccc2ccccc12)C(=O)N[C@@H](CC(C)C)[C@@H](O)CC(=O)NCCN1CCOCC1`, the half-maximal inhibitory concentration (IC50) is 120 nM.

Regarding `CC[C@H](C)CNC(=O)C[C@H](O)[C@@H](NC(=O)[C@H](CCCCNC(=S)NC)NC(=O)C(Cc1cccc2ccccc12)Cc1cccc2ccccc12)C1CCCCC1`, the IC50 amounted to 23 nM.

Take `CNC(=S)NCCCC[C@H](NC(=O)C(CC(=O)N1CCOCC1)Cc1cccc2ccccc12)C(=O)N[C@@H](CC(C)C)[C@@H](O)CC(=O)NCCN1CCOCC1` (stereo partly drawn): the IC50 came out at 560 nM.

On to `CC[C@H](C)CNC(=O)C[C@H](O)[C@H](CC(C)C)NC(=O)[C@H](CCCCNC(=S)NCC(C)(C)C)NC(=O)C(Cc1cccc2ccccc12)Cc1cccc2ccccc12`, for which the IC50 is 450 nM.

In the case of `CC[C@H](C)CNC(=O)C[C@H](O)[C@H](CC(C)C)NC(=O)C(NC(=O)[C@H](Cc1ccccc1)NC(=O)OC(C)(C)C)C(=O)OC` (stereo partly drawn), the IC50 was found to be 41 nM.

For `CCC(C)CNC(=O)C[C@H](O)[C@H](CC(C)C)NC(=O)C(CCCCCNC(=O)OCc1ccccc1)NC(=O)C(Cc1cccc2ccccc12)Cc1cccc2ccccc12` (stereo partly drawn), the IC50 was determined as 290 nM.

On to `CNC(=S)NCCCC[C@H](NC(=O)C(CC(=O)N1CCOCC1)Cc1cccc2ccccc12)C(=O)N[C@@H](CC1CCCCC1)[C@@H](O)CC(=O)NCCN1CCOCC1` (stereo partly drawn), for which the half-maximal inhibitory concentration (IC50) stood at 20 nM.

Regarding `CC[C@H](C)CNC(=O)C[C@H](O)[C@H](CC(C)C)NC(=O)[C@H](CCCCNC(=O)CS(C)(=O)=O)NC(=O)C(Cc1cccc2ccccc12)Cc1cccc2ccccc12`, the concentration for half-maximal inhibition (IC50) stood at 68 nM.

Consider `CC[C@H](C)CNC(=O)C[C@H](O)[C@H](CC(C)C)NC(=O)[C@H](CCCNC(=O)NC)NC(=O)C(Cc1cccc2ccccc12)Cc1cccc2ccccc12`, for which the concentration for half-maximal inhibition (IC50) was 890 nM.

Regarding `CC[C@H](C)CNC(=O)C[C@H](O)[C@H](CC(C)C)NC(=O)C(Cc1nc2ccccc2[nH]1)NC(=O)C(Cc1cccc2ccccc12)Cc1cccc2ccccc12` (stereo partly drawn), the 50% inhibitory concentration (IC50) was 2800 nM.

Regarding `CC(C)C[C@H](NC(=O)[C@H](CCCCNC(=N)N[N+](=O)[O-])NC(=O)C(CC(=O)N1CCOCC1)Cc1cccc2ccccc12)[C@@H](O)CC(=O)NCCN1CCOCC1` (stereo partly drawn), the IC50 was 420 nM.

Take `C=CCCCC(NC(=O)C(Cc1cccc2ccccc12)Cc1cccc2ccccc12)C(=O)N[C@@H](CC(C)C)[C@@H](O)CC(=O)N[C@@H](CC(C)C)C(=O)NCc1ccccc1` (single isomer, unassigned; isomer a) [Example 48, DNMA-NHCH(CH2 CH2 CH2 CH=CH2)CO-STA-LEU-NHCH2 Ph (ISOMER A)]: the concentration for half-maximal inhibition (IC50) was determined as 91 nM.

As for `CCC(C)CNC(=O)C[C@H](O)[C@H](CC(C)C)NC(=O)[C@H](CCCCNC(N)=NC#N)NC(=O)C(Cc1cccc2ccccc12)Cc1cccc2ccccc12` (stereo partly drawn), the IC50 was 18 nM.

Source of the values: US5024994A, “Renin inhibitors IV” (Warner-Lambert Company, priority 1988, dated 1991).
